In PubChem BioAssay AID743236 (The Scripps Research Institute Molecular Screening Center, 2013):
Activity calls are given as the source filed them. How the calls were made is not given here.

System: Ga16-expressing cells, calcium fluorescence, agonist counterscreen
Experiment: Ga16 cell calcium activation, concentration series – fluorescence, dose response, counter-screen for TAAR1 antagonist project, late-stage follow-up (AID 743236)

SMILES	EC50
CCCCC(=O)Nc1ccc(C(=O)Nc2ccc(S(=O)(=O)N3CCCC3)cc2)cc1	> 29.9 µM (inactive)
COc1cc(NC(=O)c2cc3ccccc3o2)c(OC)cc1Cl	> 29.9 µM (inactive)
O=C(NCCn1cc(SCc2ccccc2F)c2ccccc21)c1c(F)cccc1F	> 29.9 µM (inactive)
COc1cccc(-c2nn(-c3ccccc3)cc2C(=O)Nc2nccs2)c1	> 29.9 µM (inactive)
Cc1coc(NC(=O)CSc2nc(-c3ccc(Cl)cc3)cc(C(F)(F)F)c2C#N)n1	> 29.9 µM (inactive)
Cc1cccc(C(C#N)c2nc3ccccc3nc2C(F)(F)F)c1 (centres undefined)	> 29.9 µM (inactive)
Cc1ccc(CSCC(=O)Nc2cc(S(=O)(=O)N3CCOCC3)ccc2OCC(F)(F)F)cc1	> 29.9 µM (inactive)
Cc1nn(Cc2c(F)c(F)c(F)c(F)c2F)c(C)c1NC(=O)c1ccc(COc2ccccc2Cl)cc1	> 29.9 µM (inactive)
CC(=O)c1ccc(NC(=O)c2ccc(COc3ccccc3[N+](=O)[O-])o2)cc1	> 29.9 µM (inactive)
